Like-named read-outs stand apart in the source and are kept apart here.
Assays:
[1] = test system: FRAT2-C9M-TF1 cells; assay: EC50 titration, Alamar Blue, suspension cells; format: cell-based, Human; settings: Homo sapiens, 72 h, Alamar Blue
Protocol: (§1) On the day of the assay compounds are used to prepare dilution series on Titration Plates which are plated at ten times their final screening concentration in 10 μl aliquots.
(§2) Suspension cells are split 24 hours prior to drug treatment in order to bring the cultures into the log phase of growth. On the day of the assay the cells are plated directly into the Titration Plates at the appropriate pre-determined seeding density (Table 1) in 90 μl volumes thus reducing the concentration of the compounds to their final test concentration. The plates are incubated for 72 hours at 37° C. and 5% CO2 after which time they are assayed by Alamar Blue.
(§3) The EC50 values are calculated using the values obtained from the Alamar Blue readout which are converted into a “Percentage of the Untreated Control” and using Graph Pad Prism these values are plotted against the logarithm of the test concentration. Using a non-linear regression analysis a sigmoidal dose-response curve is generated from which the EC50 is determined.

[2] = test system: HT29 Colorectal adenocarcinoma; assay: Primary high-throughput screen, Alamar Blue, adherent cells; format: cell-based; settings: Homo sapiens, HT-29; compound at 10 μM, 72 h; read-out: percentage kill, HT29
Protocol: (§4) Adherent cells are plated at a pre-determined seeding density (Table 1) in flat-bottom 96 well plates 24 hours prior to drug treatment. The cell lines are plated in 100 μl volumes in each well. Cells are plated in all wells apart from those in Column 12 which contain 100 μL normal culture medium alone. These plates will be known as the Test Plates. The Test Plates are labelled with a Daughter Plate ID.
(§5) Daughter Plates containing 10 μl of a […] solution of test compound selected from among the candidate compounds stored at […] are thawed at room temperature. A 10 μL volume of 0.1% DMSO in PBS is added to all wells of Column 12 and the wells in Row A-F of Column 1. A 10 μl volume of a pre-determined concentration of the P13-Kinase inhibitor LY294002 is added to wells in Row G and H of Column 1. A 90 μl volume of the appropriate cell culture medium is then added to each well and mixed by repeated aspiration/dispensing. The compounds are at a final test concentration of 10 μM.
(§6) Once the Daughter Plates have been prepared the media is removed from all wells of the cell culture plate using an 8-Channel Vacuum Aspirator. The contents of the Daughter Plates are then transferred to the appropriate wells of their relevant Test Plates and the Test Plates are incubated for 72 h at 37° C. and 5% CO2. At the end of this period Test Plates are assayed by Alamar Blue. A 10 μl volume of Alamar Blue is added to all wells of the Test Plate. The Test Plates are incubated for […] at 37° C. and 5% CO2 and finally read using the BioTek SYNERGY plate reader (Excitation 530125 nm-Emission 590135 nm). Percentage inhibition is determined using Microsoft Excel spreadsheet calculations.
(§7) The figures appearing in the columns are the percentage kill achieved by that compound at 10 μM.

[3] = test system: LS123 Colon adenocarcinoma (Dukes' type B); assay: as above; format: cell-based; settings: Homo sapiens, LS-123; compound at 10 μM, 72 h; read-out: percentage kill, LS123
Protocol: as §4, §5, §6, §7

[4] = test system: U1810 Non Small Cell Lung Carcinoma; assay: as above; format: cell-based; settings: U-1810; compound at 10 μM, 72 h; read-out: percentage kill, U1810
Protocol: as §4, §5, §6, §7

[5] = test system: A549 Non Small Cell Lung Carcinoma; assay: as above; format: cell-based; settings: Homo sapiens, compound at 10 μM, 72 h, read-out: percentage kill, A549
Protocol: as §4, §5, §6, §7

[6] = test system: SW480 Colon adenocarcinoma (Dukes' type B); assay: as above; format: cell-based; settings: Homo sapiens, compound at 10 μM, 72 h, read-out: percentage kill, SW480
Protocol: as §4, §5, §6, §7

[7] = test system: CACO2 Colon adenocarcinoma; assay: as above; format: cell-based; settings: Homo sapiens, Caco-2; compound at 10 μM, 72 h; read-out: percentage kill, CAC02
Protocol: as §4, §5, §6, §7

[8] = test system: PC3 Prostate carcinoma (bone metastasis); assay: as above; format: cell-based; settings: compound at 10 μM, 72 h; read-out: percentage kill, PC3
Protocol: as §4, §5, §6, §7

[9] = test system: NCI ADR RES Breast adenocarcinoma (pleural effusion); assay: as above; format: cell-based; settings: Homo sapiens, compound at 10 μM, 72 h, read-out: percentage kill, NCI ADR RES
Protocol: as §4, §5, §6, §7

[10] = test system: MCF7 Mammary gland adenocarcinoma; assay: as above; format: cell-based; settings: Homo sapiens, compound at 10 μM, 72 h, read-out: percentage kill, MCF7
Protocol: as §4, §5, §6, §7

[11] = test system: C9M-TF1 cells; assay: Primary high-throughput screen, Alamar Blue, suspension cells; format: cell-based; settings: Homo sapiens, 72 h, compound at 10 μM, read-out: percentage kill, C9M
Protocol: as §5, §6
(§8) Suspension cells are split 24 hours prior to drug treatment in order to bring the cultures into the log phase of growth. On the day of the assay the cells are plated directly into the Daughter Plates at the appropriate pre-determined seeding density (Table 1) in 90 μl volumes, the concentration of the test compounds thus being reduced to 10 μM. Cells are plated in all wells apart from those in Column 12 which contain 901 normal culture medium alone. The plates are incubated for 72 h at 37° C. and 5% CO2 after which time they are assayed by Alamar Blue as per the preceding example.
as §7

[12] = test system: FRAT2 overexpresing TF1 (FRAT2-C9M-TF1 cells); assay: as above; format: cell-based; settings: Homo sapiens, compound at 10 μM, 72 h
Protocol: as §5, §6, §8, §7

[13] = test system: C9M-TF1 cells; assay: EC50 titration, Alamar Blue, suspension cells; format: cell-based; settings: Homo sapiens, 72 h
Protocol: as §1, §2, §3

[14] = test system: breast cancer cell line MCF7; assay: EC50 titration, Alamar Blue, adherent cells; format: cell-based; settings: Homo sapiens, 72 h
Protocol: as §1
(§9) For adherent cell lines plated 24 hours previously, a 90 μl volume of the appropriate cell culture medium is then added to each well of the Titration Plates and mixed by repeated aspiration/dispensing, thus taking the compounds to their final test concentration. Once the Titration Plates have been prepared the media is removed from all wells of the cell culture plate and the contents of the Titration Plates are then transferred to the appropriate wells of their relevant Test Plates and incubated for 72 h at 37° C. and 5% CO2 after which time they are assayed by Alamar Blue. Using a combination of Microsoft Excel and Graph Pad Prism, EC50s are determined.
as §3

[15] = test system: non-transformed breast cell line MCF10A; assay: EC50 titration, Alamar Blue, adherent cells; format: cell-based; settings: Homo sapiens, MCF-10A, 72 h
Protocol: as §1, §9, §3

[16] = test system: colon cancer cell line HT29; assay: EC50 titration, Alamar Blue, adherent cells; format: cell-based; settings: Homo sapiens, HT-29, 72 h
Protocol: as §1, §9, §3

[17] = minus GMCSF, read-out: percentage kill, FRAT2−
[18] = plus GMCSF, read-out: percentage kill, FRAT2+

Row | EC50 [14] [µM] | EC50 [16] [µM] | SMILES | EC50 ([1]; absence of growth factor) [µM] | EC50 ([1]; presence of growth factor) [µM] | inhibition at 10 µM [2] [%] | inhibition at 10 µM [3] [%] | inhibition at 10 µM [4] [%] | inhibition at 10 µM [5] [%] | inhibition at 10 µM [6] [%] | inhibition at 10 µM [7] [%] | inhibition at 10 µM [8] [%] | inhibition at 10 µM [9] [%] | inhibition at 10 µM [10] [%] | inhibition at 10 µM ([11]; first C9M column) [%] | inhibition at 10 µM ([11]; second C9M column) [%] | inhibition at 10 µM [12, 17] [%] | inhibition at 10 µM [12, 18] [%] | EC50 [13] [µM] | EC50 [15] [µM]
1 | 3.8 | 3.98 | COc1cccc(-c2cnn3c(NCc4ccccn4)ccnc23)c1 [Compound 1] | 11.8 | 12.9 | 58 | 91 | 15 | 34 | 33 | 61 | -4 | 58 | 68 | -1 | 2 | 54 | 28 | 26 | 18.6
2 | 1.78 | 1.58 | COc1ccc(-c2cnn3c(NCc4ccccn4)ccnc23)c(OC)c1 [Compound 4] | 2.75 | 5.62 | 71 | 92 | 16 | 12 | 53 | 35 | -4 | 67 | 64 | 1 | 1 | 71 | 36 | 21.4 | 14.5
3 | 1.51 | 1.58 | c1ccc(-c2cnn3c(NCc4ccccn4)ccnc23)cc1 [Compound 5] | 3.63 | 5.75 | 75 | 87 | 24 | 10 | 62 | 78 | -92 | 63 | 87 | 1 | -11 | 61 | 42 | 16.6 | 12.9
4 | 1.32 | 1.41 | Fc1ccccc1-c1cnn2c(NCc3ccccn3)ccnc12 [Compound 6] | 5.75 | 5.13 | 20 | 72 | 11 | 6 | 3 | 37 | -94 | 51 | 64 | -1 | -11 | 59 | 33 | 10 | 23.4
5 | 2.34 | 4.07 | CN(C)c1cccc(-c2cnn3c(NCc4ccccn4)ccnc23)c1 [Compound 7] | 6.61 | 5.01 | 40 | 82 | 18 | 5 | 44 | 32 | -16 | 63 | 68 | 9 | 23 | 53 | 27 | 20.4 | 11.5
6 | 1.78 | 1.51 | c1ccc(CNc2ccnc3c(-c4cccc5cccnc45)cnn23)nc1 [Compound 8] | 5.62 | 5.75 | 78 | 92 | 68 | -3 | 71 | 71 | 56 | 85 | 83 | 7 | -4 | 68 | 39 | 17.8 | 6.17

The next lines start with the compound.

Row | SMILES | EC50 [14] [µM] | EC50 [16] [µM] | EC50 ([1]; absence of growth factor) [µM] | EC50 ([1]; presence of growth factor) [µM] | inhibition at 10 µM [2] [%] | inhibition at 10 µM [3] [%] | inhibition at 10 µM [4] [%] | inhibition at 10 µM [5] [%] | inhibition at 10 µM [6] [%] | inhibition at 10 µM [7] [%] | inhibition at 10 µM [8] [%] | inhibition at 10 µM [9] [%] | inhibition at 10 µM [10] [%] | inhibition at 10 µM ([11]; first C9M column) [%] | inhibition at 10 µM ([11]; second C9M column) [%] | inhibition at 10 µM [12, 17] [%] | inhibition at 10 µM [12, 18] [%] | EC50 [13] [µM] | EC50 [15] [µM]
7 | Fc1ccc(-c2cnn3c(NCc4ccccn4)ccnc23)cc1Cl [Compound 11] |  |  |  |  | 25 | 22 | 13 | 5 | -6 | 61 | -85 | 18 | 22 | 1 | -6 | 71 | 35 |  | 
8 | ClCc1ccccc1-c1cnn2c(NCc3cccs3)ccnc12 [Compound 12] |  |  |  |  | -5 | 31 | 18 | 4 | -22 | 17 | -45 | -12 | 36 | 0 | 0 | 52 | 19 |  | 
9 | c1ccc(CNc2ccnc3c(-c4ccc(N5CCOCC5)cc4)cnn23)nc1 [Compound 13] |  |  |  |  | -13 | 55 | 13 | 18 | -4 | 27 | -37 | 28 | 56 | -1 | -1 | 61 | 38 |  | 
10 | Clc1cccc(Nc2ccn3ncc(-c4ccncc4)c3n2)c1 [Compound 14] |  |  |  |  | 51 | 13 | 2 | 26 | 10 | 46 | -4 | 2 | 26 | 45 | 27 | 50 | 38 |  | 
